The text below walks through data of US20220257592A1, “METHODS OF TREATING CANCER” (HOFFMANN-LA ROCHE INC., priority 2019, published 2022).

The conditions of data set [1]: human, in vivo.
Data set [2] has as its target anaplastic lymphoma kinase (ALK) (Homo sapiens, UniProt Q9UM73). The settings on record: cited from earlier work.
Data set [3] addresses TrkC (Homo sapiens, UniProt Q16288). The settings on record: cited from earlier work.

Marks after values point to notes of the source that are not given here.

Chain of TrkC (Q16288 32-839): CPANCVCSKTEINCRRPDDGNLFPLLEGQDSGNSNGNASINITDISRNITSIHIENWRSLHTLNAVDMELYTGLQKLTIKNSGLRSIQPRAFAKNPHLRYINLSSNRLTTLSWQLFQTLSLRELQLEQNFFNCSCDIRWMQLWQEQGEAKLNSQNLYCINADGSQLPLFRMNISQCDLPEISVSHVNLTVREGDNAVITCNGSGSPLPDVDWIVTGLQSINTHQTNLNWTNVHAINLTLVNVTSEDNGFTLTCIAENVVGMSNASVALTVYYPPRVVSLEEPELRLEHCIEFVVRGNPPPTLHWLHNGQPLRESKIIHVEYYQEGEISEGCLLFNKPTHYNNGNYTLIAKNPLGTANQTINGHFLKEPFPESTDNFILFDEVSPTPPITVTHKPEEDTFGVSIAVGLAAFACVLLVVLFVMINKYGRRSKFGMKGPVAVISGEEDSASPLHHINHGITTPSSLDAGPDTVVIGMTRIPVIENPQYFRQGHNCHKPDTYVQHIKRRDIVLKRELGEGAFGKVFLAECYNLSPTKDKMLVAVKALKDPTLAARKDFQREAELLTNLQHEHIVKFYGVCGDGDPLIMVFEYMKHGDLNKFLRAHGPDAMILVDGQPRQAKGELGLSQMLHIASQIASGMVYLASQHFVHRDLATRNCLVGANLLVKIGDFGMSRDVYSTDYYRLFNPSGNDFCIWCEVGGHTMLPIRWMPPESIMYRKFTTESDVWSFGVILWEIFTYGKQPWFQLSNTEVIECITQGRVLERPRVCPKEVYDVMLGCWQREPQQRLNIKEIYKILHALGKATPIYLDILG
Chain of anaplastic lymphoma kinase (ALK) (Q9UM73 19-1620): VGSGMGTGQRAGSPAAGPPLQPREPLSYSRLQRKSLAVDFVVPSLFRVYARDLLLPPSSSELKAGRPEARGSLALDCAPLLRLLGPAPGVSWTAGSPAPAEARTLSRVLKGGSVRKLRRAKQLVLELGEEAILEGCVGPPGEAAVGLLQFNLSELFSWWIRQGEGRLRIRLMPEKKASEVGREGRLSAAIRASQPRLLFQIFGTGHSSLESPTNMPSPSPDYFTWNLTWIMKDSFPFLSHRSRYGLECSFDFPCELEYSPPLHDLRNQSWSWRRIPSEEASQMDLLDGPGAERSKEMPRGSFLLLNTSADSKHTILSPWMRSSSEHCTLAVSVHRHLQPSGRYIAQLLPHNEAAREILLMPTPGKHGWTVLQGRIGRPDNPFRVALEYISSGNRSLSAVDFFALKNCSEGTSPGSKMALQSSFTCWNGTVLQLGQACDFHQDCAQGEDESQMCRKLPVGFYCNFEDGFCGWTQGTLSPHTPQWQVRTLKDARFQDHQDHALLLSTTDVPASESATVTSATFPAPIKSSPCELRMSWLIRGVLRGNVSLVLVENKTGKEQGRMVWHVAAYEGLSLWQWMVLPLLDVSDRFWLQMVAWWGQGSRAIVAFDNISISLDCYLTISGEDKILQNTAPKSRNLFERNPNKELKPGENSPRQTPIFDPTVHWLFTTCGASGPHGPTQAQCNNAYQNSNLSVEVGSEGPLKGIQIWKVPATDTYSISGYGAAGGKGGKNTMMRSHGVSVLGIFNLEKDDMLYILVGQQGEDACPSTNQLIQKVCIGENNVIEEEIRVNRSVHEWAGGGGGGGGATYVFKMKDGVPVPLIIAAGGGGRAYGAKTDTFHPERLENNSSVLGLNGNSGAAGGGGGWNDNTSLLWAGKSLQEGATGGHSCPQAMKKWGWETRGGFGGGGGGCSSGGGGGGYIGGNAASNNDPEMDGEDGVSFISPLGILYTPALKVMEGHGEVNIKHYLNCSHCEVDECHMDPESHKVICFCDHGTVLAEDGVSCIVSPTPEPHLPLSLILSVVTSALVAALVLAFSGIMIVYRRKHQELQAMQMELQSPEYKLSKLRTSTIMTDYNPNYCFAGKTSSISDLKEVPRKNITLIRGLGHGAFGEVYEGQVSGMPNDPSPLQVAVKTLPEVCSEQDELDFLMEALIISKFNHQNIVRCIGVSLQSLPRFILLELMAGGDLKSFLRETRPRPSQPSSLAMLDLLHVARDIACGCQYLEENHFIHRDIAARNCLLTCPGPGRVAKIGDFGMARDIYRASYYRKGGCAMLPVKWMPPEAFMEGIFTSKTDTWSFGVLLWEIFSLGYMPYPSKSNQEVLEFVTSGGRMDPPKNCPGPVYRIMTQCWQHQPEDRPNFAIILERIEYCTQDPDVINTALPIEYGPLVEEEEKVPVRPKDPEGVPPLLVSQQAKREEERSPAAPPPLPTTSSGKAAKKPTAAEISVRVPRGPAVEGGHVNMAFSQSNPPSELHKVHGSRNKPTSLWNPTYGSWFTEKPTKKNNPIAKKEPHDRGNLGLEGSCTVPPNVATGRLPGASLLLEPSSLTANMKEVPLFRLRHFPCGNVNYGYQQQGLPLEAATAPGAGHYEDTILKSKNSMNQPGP

Turning to `CN1CCN(c2ccc(C(=O)Nc3n[nH]c4ccc(Cc5cc(F)cc(F)c5)cc34)c(NC3CCOCC3)c2)CC1` [Entrectinib, N-[5-(3,5-difluorobenzyl)-1H-indazol-3-yl]-4-(4-methyl-piperazin-1-yl)-2-(tetrahydro-pyran-4-ylamino)-benzamide], in data set [1] (both), the “Dyspnea, Grade ≥3” value is 6* %; the “Fatal event: completed suicide” value stood at 0.3%; the “Fatal event: dyspnea” value is reported as 0.6%; the “Fatal event: pneumonia” value is 0.6%. Besides, in data set [1] (both), the “Fatal event: sepsis” value is listed as 0.6% and the “Fatal event: tumor lysis syndrome” value came out at 0.3%. Besides, in data set [1], the “Lung infection, Grade ≥3” value was 6* %. Further, the “inhibition of ALK tyrosine kinase” value in data set [2] is recorded as “potent inhibitor”. The “inhibition of TrkC tyrosine kinase” value in data set [3] is reported as “potent inhibitor”.
